Results taken from patent US20200131156A1, “ARYLSULFONYLPYROLECARBOXAMIDE DERIVATIVES AS Kv3 POTASSIUM CHANNEL ACTIVATORS” (H. Lundbeck A/S, priority 2018, published 2020).

Key:
[1] = Unbound fraction in plasma (mouse PK table footnote); type: in vitro ADME
human Kv3.4 = molecular target: T1, human Kv3.4 (Homo sapiens, UniProt Q03721); experiment: Manual patch clamp electrophysiology, HEK-293 cells stably expressing human Kv3.4; type: cell-based; conditions: for hKv3.4 ECΔ30% increase: concentration increasing current by 30% at the −10 mV step; for hKv3.4 ECΔ5 mV: concentration that shifts activation threshold by 5 mV
T1 construct: expressed in transfected cells
T1 sequence (Q03721 1-635): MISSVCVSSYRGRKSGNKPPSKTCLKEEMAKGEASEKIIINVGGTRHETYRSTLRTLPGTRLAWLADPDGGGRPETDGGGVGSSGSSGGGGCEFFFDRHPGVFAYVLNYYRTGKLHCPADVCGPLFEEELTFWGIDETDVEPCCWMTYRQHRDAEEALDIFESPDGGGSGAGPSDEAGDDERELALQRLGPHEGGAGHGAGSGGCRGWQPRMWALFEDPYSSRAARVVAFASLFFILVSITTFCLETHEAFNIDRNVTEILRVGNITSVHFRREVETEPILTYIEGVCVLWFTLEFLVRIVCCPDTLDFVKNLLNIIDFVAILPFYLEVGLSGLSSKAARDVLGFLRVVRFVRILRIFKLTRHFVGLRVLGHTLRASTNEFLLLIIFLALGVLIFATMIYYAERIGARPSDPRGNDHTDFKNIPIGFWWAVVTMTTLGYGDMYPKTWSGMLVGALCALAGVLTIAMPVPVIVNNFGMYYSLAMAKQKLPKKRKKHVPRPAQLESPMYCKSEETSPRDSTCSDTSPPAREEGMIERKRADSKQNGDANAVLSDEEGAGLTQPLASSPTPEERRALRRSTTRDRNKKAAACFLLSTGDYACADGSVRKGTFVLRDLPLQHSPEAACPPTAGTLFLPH
Procedure: (§1) Manual Patch Clamp Electrophysiological Evaluation, hKv3.1, hKv3.2, hKv3.3, hKv3.4:
(§2) HEK-293 cells stably expressing human Kv3.1b, Kv3.2, Kv3.3 or Kv3.4 were used for the experiments.
(§3) Kv3.1b, Kv3.2: Cells were cultured in MEM medium supplemented with 10% Fetal Bovine Serum, 1% Penicillin/Streptomycin, 2 mM glutamine and 0.6 mg/mL geneticin. Cells were grown to 80-90% confluency at 37° C. and 5% CO2 Kv3.3 or Kv3.4: Cells were cultured in DMEM medium supplemented with 10% Fetal Bovine Serum, 500 ug/mL Geneticidin and 1% Penicillin/Streptomycin. Cells were grown to 80-90% confluency at 37° C. and 5% CO2.
(§4) On the day of the experiment the cells were detached by TrypLE and resuspended in culture medium. Cells were centrifuged, media removed and the cells were resuspended in extracellular buffer containing (in mM): 130 Na-gluconate, 20 NaCl, 4 KCl, 1 MgCl2, 1.8 CaCl2, 10 HEPES and 5 glucose, pH 7.3 adjusted with NaOH, 310-320 mOsm
(§5) Patch-clamp recordings were performed using a manual patch-clamp system (Axon Multiclamp 700B, Digidata 1440, pCLAMP 10, Molecular Devices Corporation) with a fast perfusion system (RSC-160 Rapid solution Changer, BioLogic). Whole-cell recordings were carried out using an intracellular solution containing (in mM): 100 K-gluconate, 40 KCl, 10 HEPES, 1 EGTA, 1 MgCl2, pH 7.2 adjusted with KOH, 290-300 mOsm. Cell membrane potentials were held at −80 mV and current voltage-relationship was generated by voltage steps (50 ms duration) from −100 mV to +10 mV (in 10 mV increments) and then back to −100 mV for 50 ms, with inter-sweep interval of 3 s. The peak current amplitude of −10 mV was monitored until stable (<5% change) by using one step voltage protocol. One IV protocol was run as baseline, then compound perfusion was stared and peak current stability was monitored with single step protocol prior to the IV protocol. Single concentrations were measured per cell. Acceptable cells had seal resistance >500 MOhm, Access resistance <10 MOhm, and leak current <200 pA.
(§6) Data analysis was performed using Clampfit (V10.2) in combination with Microsoft Excel™ (Redmond, Wash., USA). Current voltage relationships were plotted from the peak current (baseline subtracted) at the individual voltage steps normalized to the vehicle addition at 10 mV. The voltage threshold for channel activation was defined as 5% activation of the peak current at 10 mV in presence of vehicle. […] The concentration needed to shift the threshold 5 mV was readout from this curve (ECΔ5 mV), as well as the ability to increase the peak current at the −10 mV step (EC30% increase). […]

human Kv3.2 = molecular target: T2, human Kv3.2 (Homo sapiens, UniProt Q96PR1); experiment: Manual patch clamp electrophysiology, HEK-293 cells stably expressing human Kv3.2; type: cell-based; conditions: for hKv3.2 ECΔ30% increase: concentration increasing current by 30% at the −10 mV step; for hKv3.2 ECΔ5 mV: concentration that shifts activation threshold by 5 mV
T2 construct: expressed in transfected cells
T2 sequence (Q96PR1 1-638): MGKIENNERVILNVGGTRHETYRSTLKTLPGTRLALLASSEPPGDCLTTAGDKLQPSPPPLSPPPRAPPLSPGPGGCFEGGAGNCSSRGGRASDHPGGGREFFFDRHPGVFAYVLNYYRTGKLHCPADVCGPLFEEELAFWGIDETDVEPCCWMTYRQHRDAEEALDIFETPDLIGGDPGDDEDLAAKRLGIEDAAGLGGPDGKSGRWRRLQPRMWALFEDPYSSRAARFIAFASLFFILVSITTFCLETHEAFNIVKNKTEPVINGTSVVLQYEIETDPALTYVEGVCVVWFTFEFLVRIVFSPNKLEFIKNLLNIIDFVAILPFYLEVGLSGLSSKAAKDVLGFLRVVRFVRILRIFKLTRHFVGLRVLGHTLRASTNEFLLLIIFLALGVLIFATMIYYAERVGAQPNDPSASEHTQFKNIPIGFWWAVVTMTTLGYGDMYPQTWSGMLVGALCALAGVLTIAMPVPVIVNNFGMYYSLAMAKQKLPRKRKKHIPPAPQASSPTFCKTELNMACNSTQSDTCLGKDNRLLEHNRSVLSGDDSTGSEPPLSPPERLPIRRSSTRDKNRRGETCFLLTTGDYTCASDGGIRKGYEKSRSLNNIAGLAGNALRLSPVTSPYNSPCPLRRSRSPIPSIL
Procedure: as §1, §2, §3, §4, §5, §6

[2] = Unbound fraction in plasma; type: in vitro ADME, rat

| fraction unbound [1] | hKv3.4 ECΔ30% increase (human Kv3.4) [µM] | hKv3.4 ECΔ5 mV (human Kv3.4) [µM] | hKv3.2 ECΔ30% increase (human Kv3.2) [µM] | hKv3.2 ECΔ5 mV (human Kv3.2) [µM] | fraction unbound ([2]; rat table footnote) | fraction unbound ([2]; rat PK table footnote) | Structure (SMILES) |
| --- | --- | --- | --- | --- | --- | --- | --- |
| 0.08 | >30 | 14.4 | >30 | 6.0 | 0.12 |  | Cc1ccc(S(=O)(=O)n2ccc(C(=O)NCc3ncco3)c2)cc1 [Compound 86, 1-(4-methylbenzene-1-sulfonyl)-N-[(1,3-oxazol-2-yl)methyl]-1H-pyrrole-3-carboxamide] |
| 0.1 | >30 | >30 | 8.2 | 1.5 |  | 0.1 | Cc1cnc(CNC(=O)c2ccn(S(=O)(=O)c3ccc(F)cc3C)c2)cn1 [Compound 90, 1-(4-fluoro-2-methylbenzene-1-sulfonyl)-N-[(5-methylpyrazin-2-yl)methyl]-1H-pyrrole-3-carboxamide] |
